One data set has as its system SZ95 sebocytes. Nature of the data set: Inhibition of lipid synthesis in SZ95 sebocytes. As to conditions: 96-well microtiter plate format. The class given is cell-based, human. The protocol:
The immortalized human sebocyte cell line, SZ95, was maintained in culture as described in Zouboulis, C. C. et al., J. Invest. Dermatol. (1999), Vol. 113, pp. 1011-1020. Lipid synthesis was stimulated by treating SZ95 cells with arachidonic acid (AA). For measurement of lipid production and lipid inhibition studies, test compounds were dissolved in dimethylsulfoxide (DMSO) and added at the desired concentration in 96-well microtiter plates. The cells were then cultured for up to 72 hours before the plates were washed 3 times with PBS and a final volume of 200 μL PBS/well was added. […] Plate fluorescence was then quantified using a fluorometric plate reader (excitation wavelength: 490 nm; emission wavelength: 590 nm). Inhibition of lipid levels by the test compound was expressed as the % reduction of the fluorescence of AA-stimulated cells in the presence of the test compound relative to the values obtained for the unstimulated control cells. Cell viability was measured by utilizing the conversion of a tetrazolium reagent (MTS) to a colored-formazan product by live cells. […] The color development of the wells was measured using a plate reader at an absorbance of […]. Effect on cell viability by the test compound was expressed as the % reduction of the absorbance for AA-stimulated cells in the presence of the test compound relative to the values obtained for the untreated control cells.

Data set [1] can be described thus: Determination of solubility in synthetic sebum. Type of data set: physicochemical. As to conditions: oil or lipid, thermodynamic from solid, 32° C., agitated overnight, HPLC, read-out: Solubility in Liquid Synthetic Sebum. As for the experimental part: Compounds described herein can be tested to evaluate their solubility in lipids. To determine the solubility, a synthetic sebum mixture was used. More specifically, approximately 5 mg of a compound was added into 1.5 ml eppendorf tubes, which was then combined with 0.1 ml of synthetic sebum and then briefly vortexed. Mixtures were placed samples in a shaker pre-heated to 32° C. and then agitated overnight. Prior to sampling for HPLC analysis, tubes were placed in an eppendorf centrifuge and spun at 13000 rpm for 5 min to pellet the insoluble drug portion. Following centrifugation, 20 ul of the top portion of the soluble fraction was sampled, in triplicate, into a 2 ml HPLC vial for analysis and the mass recorded. One ml of THF was then added to each vial to solubilize sebum. To determine their concentrations, HPLC analysis of all compounds was carried out under the same running conditions.

For data set [2], the system named is hamster ear sebaceous glands. Nature of the data set: Hamster ear sebaceous gland model, repeat topical application. Type of data set: in vivo, Syrian golden hamster. As for the experimental part:
The Syrian golden hamster ([…]) ear sebaceous gland model was used to evaluate the effect of repeat application of TOFA and TOFA analogs. Male animals were employed since they have larger sebaceous glands than females a consequence of their higher endogenous levels of androgenic hormones. To define compound effects, cross-sections prepared from hamster ears were treated with the neutral lipid-specific stain Oil Red O. Staining results were compared to the untreated ear of the same animal in order to account for any changes in the overall physiological state of the animal as well as potential systemic effects stemming from local drug application.
Typically, compounds were prepared and applied in 40% dimethyl acetamide (DMA)/30% acetone/30% ethanol (vehicle). Animals were typically 10-12 weeks of age and 100-150 g bodyweight at the start of the experiment. Treatment groups consisted of 5-8 animals. Non-anesthetized hamsters were administered the test material onto the ventral surface of the right ear using a pipette at a volume of 20 μl per ear. Materials were gently massaged into the treatment site with a gloved finger for approximately 15 sec. Hamsters received treatment once daily for 15-28 consecutive days. Application of the test articles occurred within the same 4-hour period on each application day. The left ear remained untreated and served as an internal control site. Animals were evaluated daily for general appearance and potential clinical signs related to treatment such as edema, erythema, discoloration or other changes to the ears. Hamsters were also assessed for general health by coat appearance, behavior, and activity level.
Animals were euthanized by CO2 asphyxiation approximately 16-20 h following the final (21st) application. Tissue samples for sebaceous gland analysis were subsequently taken by histology personnel. The right (treated) and left (untreated) ears were carefully removed from euthanized hamsters. A 3.5 mm punch biopsy of the treated ear was marked with a marking dye on the ventral surface. A punch biopsy of the untreated ear was marked with a separate tissue-marking dye on the ventral surface. Tissues were embedded in a labeled mold filled with “Neg 50” cryo-embedding medium and frozen on liquid nitrogen. These blocks were sequentially wrapped in Parafilm® then aluminum foil for storage at −70° C. until required.
To assess sebaceous gland status, ear cross-sections were initially cut at a thickness of approximately 8 μm onto glass slides and immediately fixed with 10% buffered formalin. Sections were stained with the lipid-specific Oil Red O dye by standard methods, covered with Faramount (Dakocytomation, Ca) acrylic mounting medium, cover slipped and then allowed to set. […] Tissue sections stained with Oil Red O were viewed with a Spot RT digital camera mounted on an Olympus BX60 microscope. An image of the section was taken using the 4× microscope objective. The image was saved using the unique animal identification number, slide number, and magnification. Relative sebaceous gland areas (red staining areas) were determined using Image-Pro software (Media Cybernetics Inc., Silver Spring, Md.). The area of image analysis was the dermis which included the region from the epidermal-dermal junction to the midline of the tissue demarcated by the central cartilage line. Data was expressed as percentage of the area of the tissue cross section which was red in color, representative of lipid-containing structures, in comparison to the total area analyzed.
In these experiments, the compound of the invention, TOFA and vehicle were applied onto male hamster ears. At the end of treatment, the hamsters were sacrificed and the area of sebaceous glands in the treated area was determined. […]

Data set [3] has as its system moderate to severe acne patients. As to conditions: oral, at 12 weeks; cited from earlier work.
Where [4] appears, read: 21 consecutive days, 75 mM, ear cross-sections (FIG. 3).

≈ marks a conversion by molar mass, not a printed value.

On to `CCCCC/C=C\C/C=C\C/C=C\C/C=C\CCCC(=O)O` [arachidonic acid], for which the “increase of SZ95 sebocyte lipid levels” value with SZ95 sebocytes was “approximately 5 fold”.

The solubility is the concentration that dissolves in the medium under given conditions. As for `CCCCCCCCCCCCCCOc1ccc(C(=O)O)o1` [TOFA, 5-(tetradecyloxy)-2-furancarboxylic acid], in data set [1], the solubility amounted to 1.5 ± 0.4 mg/mL (≈ 4.62 mM). For the same molecule, the “inflammatory cell presence in skin sections” value in data set [2] (setting [4]) is given as “No appreciable inflammatory cell presence”. Further, the “tolerability of repeat topical applications” value in data set [2] (hamster, in vivo) is on record as “well-tolerated”.

`CCCCCCCCCCCCCCOc1ccc(C(=O)OCc2oc(=O)oc2C)o1` [Compound C, (5-methyl-2-oxo-1,3-dioxol-4-yl)methyl 5-(tetradecyloxy)furan-2-carboxylate]: the solubility in data set [1] came to 13.6 ± 1.9 mg/mL (≈ 31.2 mM).

Regarding `CC(c1cc2ccccc2s1)N(O)C(N)=O` (centres unmarked) [Zileuton], in data set [3], the “reduction in inflammatory lesions” value is reported as 71% and the “reduction of sebum lipids” value was 65%.

In the case of `CCCCCCCCCCCCCCOc1ccc(C(=O)OCC(F)(F)F)o1` [Compound A, 2,2,2-trifluoroethyl 5-(tetradecyloxy)furan-2-carboxylate], in data set [1], the solubility was determined as 28.9 ± 9.2 mg/mL (≈ 71.1 mM). In data set [2] (setting [4]), the “inflammatory cell presence in skin sections” value was “No appreciable inflammatory cell presence” and the “sebaceous gland area, histological appearance (Oil Red O)” value is reported as “Reduced sebaceous gland area”. In addition, the “average gland area lower in comparison to vehicle-treated animals” value in data set [2] (after 21 days of application in 40% DMA/30% acetone/30% ethanol (FIG. 2)) is reported as 63.5%. The “sebaceous gland counts versus control values” in data set [2] (samples prepared two weeks after completion of 21-day treatment) is given as “significantly lower”. Besides, the “sebaceous gland area compared to TOFA and vehicle (FIG. 1)” value in data set [2] (topical daily at 75 mM for 21 days in 40% DMA/30% acetone/30% ethanol) was “ability to reduce sebaceous gland area”.

In the case of `CCCCCCCCCCCCCCOc1ccc(C(=O)OC(C)C)o1` [Compound B, isopropyl 5-(tetradecyloxy)furan-2-carboxylate], in data set [1], the solubility stood at 43 ± 0.5 mg/mL (≈ 117 mM).
